The test system of data set [1] is EROD activity, non-Cyp1a component of the liver microsomes. Put plainly: in vitro. The following applies: mouse, pH 7.4.
Method: (§2) Protein enzyme/concentrations were 3.46 pmol/ml for recombinant human CYP1A1, 10.8 pmol/ml for recombinant human CYP1A2, 0.05 mg protein/ml for liver microsomes from TCDD-treated hCYP1A1/1A2 mice, and 0.25 mg protein/ml for liver microsomes from TCDD-treated Cyp1 KO mice and vehicle-treated hCYP1A1/1A2 mice. Where needed, total protein concentration in the reaction mixtures was adjusted using Control Bactosomes (Cypex), so all reactions (including those with the recombinant cytochrome P450s) were carried out at a total protein concentration of 0.25 mg protein/ml. Generation of fluorescent product was registered in a kinetic mode (excitation filter, 530 nm; emission filter, 584 nm). Slopes of the linear part of the kinetic curves were calculated using Ascent Software version 2.4.1 (Labsystems). For each well with the reaction medium, there was a control well containing the reaction mixture with resorufin (40 pmol). Before addition of NADPH to the reaction wells, fluorescence was recorded both from the reaction and from the control wells. The average fluorescence was calculated, and the difference between wells with and without resorufin was used for the conversion of the relative fluorescence units to the picomoles of the reaction product.
Data set [2] has as its system MROD activity, non-Cyp1a component of the liver microsomes. Put plainly: in vitro. The following applies: mouse, pH 7.4.
Method: as §2
In data set [3] the target is T1, recombinant human CYP1A1 (Homo sapiens, UniProt P04798).
T1 sequence (P04798 1-512): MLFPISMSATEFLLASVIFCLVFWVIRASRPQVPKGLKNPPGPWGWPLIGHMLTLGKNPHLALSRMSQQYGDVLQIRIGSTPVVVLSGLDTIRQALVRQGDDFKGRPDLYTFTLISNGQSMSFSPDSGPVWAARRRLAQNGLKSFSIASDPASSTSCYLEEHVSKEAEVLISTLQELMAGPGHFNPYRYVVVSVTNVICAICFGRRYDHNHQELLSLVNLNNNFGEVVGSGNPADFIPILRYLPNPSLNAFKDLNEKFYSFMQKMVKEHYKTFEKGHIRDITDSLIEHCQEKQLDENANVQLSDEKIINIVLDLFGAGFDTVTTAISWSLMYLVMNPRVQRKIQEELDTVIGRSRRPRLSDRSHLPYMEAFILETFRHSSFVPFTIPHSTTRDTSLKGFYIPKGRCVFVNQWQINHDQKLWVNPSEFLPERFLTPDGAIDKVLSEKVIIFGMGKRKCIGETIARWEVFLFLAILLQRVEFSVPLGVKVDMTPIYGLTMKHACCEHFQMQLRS
Briefly: biochemical.
Method: (§3) Slopes of the linear part of the kinetic curves were calculated using Ascent Software version 2.4.1 (Labsystems).
(§4) Where needed, total protein concentration in the reaction mixtures was adjusted using Control Bactosomes (Cypex), so all reactions (including those with the recombinant cytochrome P450s) were carried out at a total protein concentration of 0.25 mg protein/ml. […] Slopes of the linear part of the kinetic curves were calculated using Ascent Software version 2.4.1 (Labsystems). For each well with the reaction medium, there was a control well containing the reaction mixture with resorufin (40 pmol). Before addition of NADPH to the reaction wells, fluorescence was recorded both from the reaction and from the control wells. The average fluorescence was calculated, and the difference between wells with and without resorufin was used for the conversion of the relative fluorescence units to the picomoles of the reaction product.

Data set [4] addresses T2, recombinant human CYP1A2 (Homo sapiens, UniProt P05177).
T2 sequence (P05177 1-516): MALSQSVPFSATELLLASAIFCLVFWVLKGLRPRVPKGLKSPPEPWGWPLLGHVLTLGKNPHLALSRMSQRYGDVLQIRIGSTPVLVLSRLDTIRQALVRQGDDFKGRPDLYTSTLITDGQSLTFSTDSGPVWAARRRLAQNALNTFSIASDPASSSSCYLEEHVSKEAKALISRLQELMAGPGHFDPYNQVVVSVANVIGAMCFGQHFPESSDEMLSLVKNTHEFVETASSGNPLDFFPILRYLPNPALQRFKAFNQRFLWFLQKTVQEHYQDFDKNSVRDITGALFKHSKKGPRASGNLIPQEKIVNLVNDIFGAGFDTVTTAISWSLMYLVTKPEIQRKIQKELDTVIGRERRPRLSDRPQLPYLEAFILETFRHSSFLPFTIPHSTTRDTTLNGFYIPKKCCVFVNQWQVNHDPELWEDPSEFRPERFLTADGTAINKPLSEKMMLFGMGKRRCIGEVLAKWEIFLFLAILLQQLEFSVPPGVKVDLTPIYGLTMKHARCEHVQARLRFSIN
Put plainly: MROD by recombinant human CYP1A2, inhibition by quinidine. Conditions: quinidine 0, 30, 200 μM.
Method: as §3, §4

The target in data set [5] is T1, recombinant human CYP1A1. Put plainly: MROD by recombinant human CYP1A1, inhibition by quinidine. Conditions: rCYP1A1.
Method: as §3, §4
Data set [6] deals with T2, recombinant human CYP1A2. Conditions: quinidine 0, 30, 200 μM.
Method: as §2
In data set [7] the test system is liver microsomes from vehicle-treated hCYP1A1/1A2 mice. Put plainly: MROD in liver microsomes from vehicle-treated hCYP1A1/1A2 mice with quinidine. It counts as biochemical, mouse. Conditions: 200 μM quinidine. On the technique in general: Microsomes from liver hold many membrane-bound enzymes, among them those of drug oxidation.
Method: as §2
The subject of data set [8] is EROD activity of liver microsomes from vehicle-treated hCYP1A1/1A2 mice. Briefly: EROD in liver microsomes from vehicle-treated hCYP1A1/1A2 mice with quinidine. The data set is classed as biochemical. Conditions: hCYP1A1/1A2 humanized, mouse, pH 7.4.
Method: as §2
Data set [9] deals with T1, recombinant human CYP1A1. Put plainly: EROD by recombinant human CYP1A1 with and without quinidine.
Method: as §4
A short description of data set [10]: Microsomal stability in mouse liver microsomes (WT, Cyp1a KO, hCYP1A1/1A2). The protocol:
(§1) The reaction was started by addition of 200 μl of NADPH to the remaining mixture of ramelteon with microsomes, and 100-μl aliquots were taken at 1, 2, 5, 10, 15, 20, and 30 minutes after the reaction start; mixed with an equal volume of ice-cold methanol containing the internal standard; incubated on ice for at least 20 minutes; and centrifuged for 15 minutes at 16,000 rcf and +4°C on Centrifuge 5415 R (Eppendorf, Hamburg, Germany). Control incubations were carried out without the cofactor or microsomes. The concentration of ramelteon in the supernatant was measured by high-performance liquid chromatography–tandem mass spectrometry (MS/MS). Chromatographic separation was performed on a Prodigy Phenyl-3 column (5 μm, 50 × 2.0 mm; Phenomenex) using an injection volume of 10 μl and a run time of 7 minutes. Mobile phase consisted of 0.1% solutions of formic acid in water (solvent A) and acetonitrile (solvent B). For elution, a linear gradient from 20% to 60% of solvent B in 4 minutes was used, followed by 3-minute equilibration at 20% B. The multiple reaction monitoring parameters for ramelteon and tacrine were 260.28, 199.2 (precursor ion) and 204.21, 171.11 (product ion), respectively. The concentrations of ramelteon were calculated from the calibration curve.

Data set [11] in a line: Microsomal stability in pooled human liver microsomes. How it is done:
as §1

Molecules are shown by their SMILES. Where only a bound is given, the exact number is not on record here.

In general, Ki refers to the equilibrium dissociation constant of an inhibitor or competing ligand from its target. Usually IC50 stands for the point on the concentration scale where inhibition reaches its midpoint. For orientation: inhibition means the relative decrease from the control value, in per cent. Read a high inhibition as a response far below the control. Regarding `C=C[C@H]1C[N@@]2CC[C@H]1C[C@@H]2[C@@H](O)c1ccnc2ccc(OC)cc12` [quinidine], the Ki in data set [1] (Cyp1a KO) is above 200 µM; in data set [1], 422 ± 18 µM; in [2] (Cyp1a KO) it was above 200 µM; in [2], 272 ± 28 µM; on recombinant human CYP1A1 [3] it was 2.2 ± 0.18 µM; on recombinant human CYP1A1 [9], 3.3 ± 0.35 µM. Besides, the IC50 at recombinant human CYP1A1 [3] was 5.8 µM. Also, the “inhibition of MROD activity catalyzed by CYP1A2” value on recombinant human CYP1A2 [4] is on record as “did not inhibit”. Further, the “Quinidine Inhibition Type” value on recombinant human CYP1A1 [5] is listed as “Competitive”; on recombinant human CYP1A1 [9] (EROD, rCYP1A1), “Mixed”. For the same compound, at recombinant human CYP1A2 [6], the “inhibition of EROD activity catalyzed by CYP1A2” value was “did not inhibit”. Further, in data set [7], the “effect on MROD” value is “not affected”. The compound further came in with an inhibition at 200 μM in data set [8] of around 20%. Besides, the α at recombinant human CYP1A1 [9] (EROD, rCYP1A1, effect of inhibitor binding on substrate binding) came out at 31 ± 8.
As to `CCC(=O)NCC[C@@H]1CCc2ccc3c(c21)CCO3` [ramelteon], the “in vitro clearance relative to WT” value in data set [10] (Cyp1a KO mouse liver microsomes) is around 83%; in data set [10] (hCYP1A1/1A2 mouse liver microsomes), around 190%; in [11], around 70%. Further, the “contribution of mouse Cyp1a2 to clearance” value in data set [10] (WT liver microsomes) is given as 17%. The “fraction metabolized by Cyp1a2” value in data set [10] (WT mice liver microsomes, eqs. 15 and 16) was around 0.17. The “fraction metabolized by CYP1A2” value in data set [10] (hCYP1A1/1A2 mice liver microsomes, eqs. 15 and 16) is given as 0.56. Moreover, the “contribution of CYP1A2 to clearance” value in data set [10] (liver microsomes of hCYP1A1/1A2 mice) was 56%.

The values are drawn from PMC6657216, “Defining the Contribution of CYP1A1 and CYP1A2 to Drug Metabolism Using Humanized CYP1A1/1A2 and Cyp1a1/Cyp1a2 Knockout Mice” (Drug Metabolism and Disposition, 2019).
